Data reported in DBAASP.
Values after ≈ are worked out from the molar mass of the structure shown. Values joined by “and” are separate entries in the source; they are usually repeats but may differ in a detail not shown here. Identical values can stand only once. One block for each compound: values may come before it.

Columns and labels:
Assay in all cases: ≥ marks a high value that may be exact or a test limit, other limits are often not marked, values filed in µg/mL are converted to µM
[1] = system: Enterococcus faecium 5F-10
[2] = system: Salmonella enterica ATCC H9812
[3] = system: Bacillus subtilis ATCC 6051
Staphylococcus aureus MR = system: Staphylococcus aureus MR
[4] = system: Proteus mirabilis ATCC 35659
Enterococcus faecalis A4 = system: Enterococcus faecalis A4
[5] = system: Enterococcus faecalis 1F-1
[6] = system: Enterococcus faecium 4W-9
[7] = system: Bacillus licheniformis ATCC 14580
[8] = system: Staphylococcus aureus 215
[9] = system: Escherichia coli ATCC 25922
[10] = system: Pseudomonas aeruginosa PAO1
[11] = system: Bacillus amyloliquefaciens ATCC 23842
[12] = system: Staphylococcus aureus ATCC 29213
[13] = system: Bacillus cereus ATCC 14579
[14] = system: Acinetobacter baumannii KCTC 2508
[15] = system: Bacillus subtilis KCTC 2217
[16] = system: Staphylococcus aureus ATCC 25923
[17] = system: Staphylococcus aureus CCARM 3090
[18] = system: Pseudomonas aeruginosa KCTC 1637
[19] = system: Enterococcus faecium ATCC 51559
[20] = system: Pseudomonas aeruginosa CCARM 2095
[21] = system: Escherichia coli KCTC 1682
[22] = system: Staphylococcus aureus KCTC 1621
[23] = system: Staphylococcus epidermidis KCTC 1917
[24] = system: Staphylococcus aureus CCARM 3095
[25] = system: Salmonella typhimurium KCTC 1926
[26] = system: Staphylococcus aureus CCARM 3089
[27] = system: Bacillus subtilis KCTC 3068
[28] = system: Salmonella enterica subsp. enterica serovar Typhimurium C77-31
[29] = system: Pseudomonas aeruginosa ATCC 21625
[30] = system: Enterococcus faecalis ATCC 29212
[31] = system: Pseudomonas aeruginosa ATCC 10419
[32] = system: Pseudomonas aeruginosa ATCC 21630
[33] = system: Salmonella enterica subsp. enterica serovar Pullorum C79-13
Escherichia coli 078 = system: Escherichia coli 078
[34] = system: Escherichia coli CMCC 44102
Escherichia coli UB1005 = system: Escherichia coli UB1005
Escherichia coli K88 = system: Escherichia coli K88
[35] = system: Staphylococcus epidermidis ATCC 12228
Escherichia coli ER2566 = system: Escherichia coli ER2566
[36] = system: Pseudomonas aeruginosa ATCC 27853
[37] = system: Escherichia coli CVCC 1515
[38] = system: Salmonella enterica subsp. enterica serovar Typhimurium ATCC 14028
[39] = system: Bacillus subtilis ATCC 11060
Enterococcus faecalis = system: Enterococcus faecalis
[40] = system: Bacillus subtilis ATCC 23857
Escherichia coli NDM-1 = system: Escherichia coli NDM-1
Enterobacter cloacae = system: Enterobacter cloacae
Klebsiella oxytoca = system: Klebsiella oxytoca
[41] = system: Klebsiella pneumoniae NDM-1
Citrobacter freundii = system: Citrobacter freundii
[42] = system: Salmonella typhimurium PY1
[43] = system: Pseudomonas aeruginosa ATCC 15692
[44] = system: Staphylococcus aureus ATCC 1717
Escherichia coli O157:H7 = system: Escherichia coli O157:H7
Morganella morganii = system: Morganella morganii

MIC [1]: ≥ 154 µM
MIC [2]: ≥ 154 µM
MIC [3]: ≥ 77 µM
MIC (Staphylococcus aureus MR): 3.4 µM (≈ 2.83 µg/mL)
MIC [4]: ≥ 154 µM
MIC (Enterococcus faecalis A4): ≥ 154 µM
MIC [5]: ≥ 154 µM
MIC [6]: ≥ 154 µM
MIC [7]: ≥ 77 µM
MIC [8]: 4.81 µM (≈ 4 µg/mL)
MIC [9]: > 154 µM
MIC [10]: > 154 µM
MIC [11]: ≥ 77 µM
MIC [12]: 4.81 µM (≈ 4 µg/mL)
MIC [13]: ≥ 77 µM
SMILES: CC(C)C[C@H](NC(=O)[C@H](CC(C)C)NC(=O)[C@@H](N)CCC(=O)O)C(=O)N[C@@H](CO)C(=O)N[C@@H](CCCN=C(N)N)C(=O)N[C@H](C(=O)N[C@@H](CC(=O)O)C(=O)O)C(C)C [ELLSRVD]

MIC [14]: 25 µM (≈ 36.2 µg/mL)
MIC [15]: 1.56 µM (≈ 2.26 µg/mL)
MIC [16]: 1.56 µM and > 0.78 µM
SMILES: CC(C)C[C@H](NC(=O)[C@H](CCCCN)NC(=O)[C@H](CCCCN)NC(=O)[C@H](CC(C)C)NC(=O)[C@H](CC(C)C)NC(=O)[C@H](CCCCN)NC(=O)[C@H](CCCCN)NC(=O)[C@H](CC(C)C)NC(=O)[C@H](CC(C)C)NC(=O)[C@@H]1CCCN1C(=O)[C@H](CCCCN)NC(=O)[C@@H](N)CCCCN)C(N)=O [KKPLLKKLLKKL]

MIC [17]: ≥ 50 µM
MIC [18]: 6.3 µM (≈ 15.4 µg/mL)
MIC [19]: ≥ 50 µM
MIC [20]: 12.5 µM (≈ 30.6 µg/mL)
MIC [21]: 6.3 µM (≈ 15.4 µg/mL)
MIC [22]: 12.5 µM (≈ 30.6 µg/mL)
MIC [23]: 6.3 µM (≈ 15.4 µg/mL)
MIC [24]: 25 µM (≈ 61.3 µg/mL)
MIC [25]: 6.3 µM (≈ 15.4 µg/mL)
MIC [26]: 25 µM (≈ 61.3 µg/mL)
MIC [27]: 12.5 µM (≈ 30.6 µg/mL)
SMILES: CC[C@H](C)[C@H](NC(=O)[C@@H](NC(=O)[C@H](Cc1cnc[nH]1)NC(=O)[C@H](CCCN=C(N)N)NC(=O)[C@H](C)NC(=O)[C@H](CCCN=C(N)N)NC(=O)[C@H](CC(C)C)NC(=O)[C@H](CO)NC(=O)[C@H](C)NC(=O)[C@H](CO)NC(=O)[C@H](CC(C)C)NC(=O)[C@@H](N)CC(N)=O)[C@@H](C)O)C(=O)N1CCC[C@H]1C(=O)N[C@@H](CCC(N)=O)C(=O)N[C@@H](CO)C(=O)N[C@@H](CCCN=C(N)N)C(=O)N[C@@H](CCCCN)C(=O)N[C@@H](Cc1ccccc1)C(=O)NCC(=O)N[C@@H](CCCN=C(N)N)C(=O)N[C@@H](CCCN=C(N)N)C(=O)O [NLSASLRARHTIPQSRKFGRR]

MIC [28]: 4.01 µM (≈ 13.1 µg/mL)
MIC [29]: 1.99 µM (≈ 6.5 µg/mL)
MIC [30]: 16 µM (≈ 52.2 µg/mL)
MIC [31]: 4.01 µM (≈ 13.1 µg/mL)
MIC [32]: 7.99 µM (≈ 26.1 µg/mL)
MIC [33]: 4.01 µM (≈ 13.1 µg/mL)
MIC (Escherichia coli 078): 7.99 µM (≈ 26.1 µg/mL)
MIC [34]: 1.01 µM (≈ 3.3 µg/mL)
MIC (Escherichia coli UB1005): 1.01 µM (≈ 3.3 µg/mL)
MIC (Escherichia coli K88): 1.99 µM (≈ 6.5 µg/mL)
MIC [35]: 16 µM (≈ 52.2 µg/mL)
MIC (Escherichia coli ER2566): 0.49 µM (≈ 1.6 µg/mL)
MIC [9]: 1.99 µM and 3.83 µM
MIC [36]: 1.99 µM (≈ 6.5 µg/mL)
MIC [37]: 7.99 µM (≈ 26.1 µg/mL)
MIC [38]: 4.01 µM (≈ 13.1 µg/mL)
MIC [39]: 16 µM (≈ 52.2 µg/mL)
MIC [16]: 1.01 µM (≈ 3.3 µg/mL)
MIC [12]: 1.99 µM (≈ 6.5 µg/mL)
SMILES: CC[C@H](C)[C@H](NC(=O)[C@H](CCCCN)NC(=O)[C@H](CCCN=C(N)N)NC(=O)[C@H](CC(C)C)NC(=O)[C@H](Cc1ccccc1)NC(=O)[C@H](CCCN=C(N)N)NC(=O)CNC(=O)[C@H](Cc1ccccc1)NC(=O)[C@@H](N)CCCN=C(N)N)C(=O)N[C@@H](CCCN=C(N)N)C(=O)N[C@@H](CCCN=C(N)N)C(=O)N[C@@H](Cc1ccccc1)C(=O)N[C@@H](CCCN=C(N)N)C(=O)N1CCC[C@H]1C(=O)N[C@@H](CCCCN)C(=O)N[C@H](C(=O)N[C@H](C(=O)N[C@H](C(=O)N[C@H](C(=O)N[C@H](C(=O)N[C@@H](CCC(N)=O)C(=O)NCC(=O)N[C@@H](CO)C(=O)N[C@@H](C)C(=O)N[C@@H](CCCN=C(N)N)C(=O)N[C@@H](Cc1ccccc1)C(=O)NCC(N)=O)[C@@H](C)CC)[C@@H](C)O)[C@@H](C)CC)[C@@H](C)O)C(C)C [RFGRFLRKIRRFRPKVTITIQGSARFG]

MIC (Enterococcus faecalis): 16 µM (≈ 20.3 µg/mL)
MIC [40]: 8 µM (≈ 10.1 µg/mL)
MIC (Escherichia coli NDM-1): 16 µM (≈ 20.3 µg/mL)
MIC (Enterobacter cloacae): 22.6 µM (≈ 28.6 µg/mL)
MIC (Klebsiella oxytoca): 16 µM (≈ 20.3 µg/mL)
MIC [41]: 22.6 µM (≈ 28.6 µg/mL)
MIC (Citrobacter freundii): 8 µM (≈ 10.1 µg/mL)
MIC [42]: ≥ 64 µM
MIC [43]: ≥ 64 µM
MIC [44]: ≥ 128 µM
MIC (Escherichia coli O157:H7): ≥ 32 µM
MIC (Morganella morganii): ≥ 128 µM
SMILES: CC[C@H](C)[C@H](NC(=O)CN)C(=O)N[C@H](C(=O)N[C@@H](C)C(=O)NCC(=O)N[C@H](C(=O)N[C@H](C(=O)N[C@H](C(=O)N[C@@H](CCCCN)C(=O)N[C@H](C(=O)N[C@@H](CCCCN)C(=O)N[C@@H](CCCCN)C(N)=O)[C@@H](C)CC)[C@@H](C)CC)[C@@H](C)CC)[C@@H](C)CC)[C@@H](C)CC [GIIAGIIIKIKK]
